Source: patent publication US7947285B2, “Methods for preventing post endoscopic retrograde cholangiopancreatography pancreatitis” (priority 2003, dated 2011)
Where no end group is shown, it is not given here.

Tested on: patients undergoing ERCP
Test: Pain, nausea and vomiting scores pre and post ERCP (0-10 scale)
Type: in vivo, human
Description: Incidence of post-ERCP pancreatitis (sPS vs. placebo) was evaluated as the primary efficacy variable in this study. Secondary efficacy variables included incidences of post-ERCP pancreatitis in the following sub-populations: (1) cannulation of CBD; (2) sphincterotomy of CBD; (3) cannulation of pancreatic duct; (4) sphincterotomy of pancreatic duct; (5) stent insertion and removal into CBD; (6) stent insertion and removal into pancreatic duct; (7) stone extraction (basket) from CBD; (8) stone extraction (balloon) from CBD; (9) manometry of CBD; (10) manometry of pancreatic duct; (11) pain scores pre and post ERCP (0-10 scale); (12) nausea scores pre and post ERCP (0-10 scale); (13) vomiting scores pre and post ERCP (0-10 scale); (14) return to baseline activity (pre-ERCP); and (15) return to work.
Primary and secondary efficacy variables were compared between the treatment groups using the Fisher Exact Test or Cochran-Mantel Haenszel Association Test. Adverse events and vital signs (heart rate, blood pressure) were compared between the treatment groups using the t-test. The clinical assumption on which the power calculation is based was on incidence of post-ERCP pancreatitis among all patients without pancreas divisum of 6%. In order to show a 50% reduction in the rate of post-ERCP pancreatitis with a significance of p=0.05, at a power of 80%, 749 evaluable patients per treatment group (sPS vs. placebo) were needed.
Additional secondary efficacy analyses were performed on post-ERCP pain, nausea, and vomiting using a 0 to 10 digital scale. There were no significant differences between the treatment groups for baseline (pre procedure) pain, nausea and vomiting. There were also no significant differences in these variables post-ERCP although there was a slight numerical trend indicating less nausea for sPS ([…]).

For “synthetic porcine secretin (HSDGTFTSELSRLRDSARLQRLLQGLV-NH2; ends and bridges not checked; UniProt P63298 33-59, looked up) [SPS, synthetic form of porcine secretin, a 27 amino acid gastrointestinal peptide hormone]”, the “Nausea post-ERCP, Mean (SD)” value (N = 485) was 0.9 (2.1) (N = 485), the “Pain Post-ERCP, Mean (SD)” value (N = 485) was 1.8 (3.0) (N = 485) and the “Vomiting post-ERCP, Mean (SD)” value (N = 485) was 0.6 (1.9) (N = 485). For the same substance, the “Vomiting pre-ERCP, Mean (SD)” value (baseline, N = 482) was 0.1 (0.8) (N = 482), the “Nausea Pre-ERCP, Mean (SD)” value (baseline, N = 483) was 0.6 (1.7) (N = 483) and the “Pain Pre-ERCP, Mean (SD)” value (baseline, N = 483) was 1.4 (0.6) (N = 483). The “Change in Vomiting, Mean (SD)” value (pre to post ERCP, N = 479, p 0.0776) was 0.5 (2.0) (N = 479), the “Change in Nausea, Mean (SD)” value (pre to post ERCP, N = 480, p 0.0284) was 0.3 (2.5) (N = 480) and the “Change in Pain, Mean (SD)” value (pre to post ERCP, N = 480, p 0.0668) was 0.4 (3.4) (N = 480).
